What follows are molecules tested against T1, MAGE-A11:PCF11 interaction (GST-MAGE-A11 MHD and FAM-PCF11_4) (Homo sapiens, UniProt P43364) (assay: TR-FRET dose response test of compounds for disruption of MAGE-A11:PCF11 binding). Conditions: not given.
T1 construct: GST-MAGE-A11 MHD (human MAGE-A11 MHD amino acid 218-429); made in house; host or cells: E. coli BL21(DE3)
T1 sequence (P43364 218-429): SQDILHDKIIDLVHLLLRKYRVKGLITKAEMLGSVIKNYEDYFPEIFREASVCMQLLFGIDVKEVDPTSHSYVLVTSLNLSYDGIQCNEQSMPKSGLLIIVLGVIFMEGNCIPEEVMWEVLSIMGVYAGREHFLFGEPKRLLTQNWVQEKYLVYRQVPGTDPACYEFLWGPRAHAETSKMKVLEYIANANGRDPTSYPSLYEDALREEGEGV
Description: The TR-FRET assay buffer with a formula of 50 mM Tris pH 7.5, 20 mM MgCl2, 0.1 mg/ml BSA and 1 mM DTT was freshly prepared before each experiment. All TR-FRET assays were performed in black 384-well plates with 20 µl/well assay volume in the TR-FRET assay buffer at room temperature (~25 °C). All peptides or compounds were solubilized in DMSO. To test the competitive activity of peptides or compounds against the interaction between GST-MAGE-A11 MHD and FAM-PCF11_4 peptide, 10 µl/well peptide or compound at specified concentration was dispensed into a black 384-well low volume plate, followed by 5 µl/well FAM-PCF11_4 (800 nM), 5 µl/well Tb-anti-GST (20 nM), and GST-MAGE-A11 MHD (20 nM). The assay components in each well was then mixed by shaking the plate on an IKA MTS 2/4 digital microtiter plate shaker (IKA Works; Wilmington, NC, USA) for 1 min. The plate was further centrifuged in an Eppendorf 5810 centrifuge with an A-4-62 swing-bucket rotor (Eppendorf AG, Hamburg, Germany) at 201 g for 30 s. The plate was then incubated for 90 min with a lid to avoid light exposure to the assay components. After incubation, the fluorescent emission signals at 520 nm and 490 nm channels of individual wells were measured with a PHERAstar FS plate reader (BMG Labtech; Durham, NC, USA) by using a 340 nm excitation filter, 100 µs delay time, and 200 µs integration time. The TR-FRET fluorescence emission ratio (TR-FRET signal) for each well was presented as 10,000 × 520 nm/490 nm, which was used directly for curve fitting, or further converted to %Inhibition based on the respective positive and negative controls. The graphic software GraphPad Prism 4.81 (GraphPad Software; La Jolla, CA, USA) was used to generate curves and derive IC50 values of tested peptides or compounds, if applicable.
TR-FRET screen for identifying MAGE-A11 small molecule inhibitors was performed as follows. The primary one-concentration screening and subsequent 10 or 20-concentration dose-response tests were accomplished with an automated High Throughput Screening system (HighRes Biosolutions, Beverly, MA)[30]. In the primary screening, 15 µl/well FAM-PCF11_4 (267 nM) was first dispensed with a Multidrop Combi Reagent Dispenser (Thermo Fisher Scientific, Waltham, MA) to black 384-well low-volume assay plates. The plates were spun down with a Velocity11 VSpin microplate centrifuge (Agilent Technologies, Santa Clara, CA). In total, 30 nl/well of 10 mM compound/DMSO solutions, or DMSO alone, were transferred from compound plates (the St. Jude FDA drug and bioactive library, Drug-like library and Lead-like library) or a control plate to the assay plates with a Pin Tool (V&P Scientific, San Diego, CA). The compounds were arrayed in columns 3–12 and columns 15–24 of compound plates. The controls were arrayed in columns 1, 2, 13, and 14 of a compound plate. In all, 5 µl/well Tb-anti-GST (20 nM) and GST-MAGE-A11 (20 nM) or 5 µl/well Tb-anti-GST (20 nM) alone was then dispensed to selected wells with a Multidrop Combi Reagent Dispenser. The final assay volume was 20 µl/well. The final DMSO concentration was 0.25% (v/v) (0.1% (v/v) from the FAM-PCF11_4 DMSO stock solution and 0.15% (v/v) from the compound-DMSO solution or the DMSO for the control wells). The final tested compound concentration was 15 µM. The final FAM-PCF11_4 concentration was 200 nM and the final Tb-anti-GST concentration was 5 nM. The final GST-MAGE-A11 concentration was 5 nM except for those selected positive control wells in which GST-MAGE-A11 was not presented. The plates were then shaken with a big bear shaker (Big Bear Automation, Santa Clara, California) and spun down with the Velocity11 VSpin microplate centrifuge for 20 s. The plates were then incubated at room temperature in a Liconic incubator (Liconic US, Woburn, MA) for 90 min. The TR-FRET signals for individual wells were measured with a PHERAstar FS plate reader. The %Inhibition of each tested inhibitor was calculated by using Eq. 1.

Compound | IC50 [µM]
COP(=O)(OC)c1nc(-c2ccc(Cl)cc2)oc1N1CCOCC1 [SJ000090185-1] | 17.4

Same assay, conditions: Dose response TR-FRET screening of nine scaffold groups against MAGE-A11:PCF11; read-out: consensus IC50

Compound | IC50 [µM]
Fc1ccc(Cc2ccc3c(NCCCNCc4cccc5c4OCO5)ccnc3c2)c(Cl)c1 [SJ000311324-1] | 20.6
O=C1c2ccccc2NC(c2ccc(F)c(Br)c2)N1CCCN1CCOCC1 (centres unmarked) [SJ000803764-1] | 68
COc1cccc(CNCCCNc2ccnc3cc(-c4ccc(F)cc4)ccc23)c1O [SJ000311239-1] | 33.3
COc1ccc(F)cc1CNCCCNc1ccnc2cc(Oc3ccc(Cl)cc3)ccc12 [SJ000311229-1] | 19.7
Cc1ccc(S(=O)(=O)c2nc(-c3ccccc3C)oc2N2CC(C)OC(C)C2)cc1 (centres unmarked) [SJ000329041-1] | 11.8
CCOc1ccc(N(C(C)=O)C2=C(N)C(=O)c3ccccc3C2=O)cc1 [SJ000558312-2] | 65.7
O=C1C(Cl)=C(NCCN2CCOCC2)C(=O)c2ncccc21 [SJ000312204-6] | 2.25
COc1cccc(CNCCCNc2ccnc3cc(-c4ccc(C(F)(F)F)cc4)ccc23)c1O [SJ000311279-1] | 9.52
Cc1cc(C)cc(NC2=C(N)C(=O)c3ccccc3C2=O)c1 [SJ000562641-1] | 55
COc1cc2nc(N3CCN(C(=O)C4COc5ccccc5O4)CC3)nc(N)c2cc1OC (centres unmarked) [SJ000113084-10] | 57.1
COc1ccc(C(F)(F)F)cc1CNCCCNc1ccnc2cc(C(F)(F)F)ccc12 [SJ000521064-1] | 69.1
CCCOc1ccc(C2Nc3ccccc3C(=O)N2CCCN2CCOCC2)cc1 (centres unmarked) [SJ000803758-1] | > 70
COc1ccc(C2Nc3ccccc3C(=O)N2CCCN2CCOCC2)cc1OC(F)F (centres unmarked) [SJ000803760-1] | > 70
Cc1ccc(C2Nc3ccccc3C(=O)N2CCCN2CCOCC2)cc1 (centres unmarked) [SJ000803768-1] | 65.9
CN(C)c1ccc(C2Nc3ccccc3C(=O)N2CCCN2CCOCC2)cc1 (centres unmarked) [SJ000803767-1] | > 70
COc1cccc(CNCCCNc2ccnc3cc(Oc4ccc(Cl)cc4)ccc23)c1O [SJ000311227-1] | 20.7
C=C(C)CSc1nc2cc(-c3ccccc3)sc2c(=O)n1CCN1CCOCC1 [SJ000456069-1] | 0.861

Same assay, conditions: Supplementary Data 3, 59 quinoline compounds; read-out: TR-FRET IC50

Compound | IC50 [µM]
FC(F)(F)c1ccc2c(NCCCNCc3cc4ccccc4s3)ccnc2c1 [SJ000521060-1, FC(F)(F)c1ccc2c(NCCCNCc3cc4ccccc4s3)ccnc2c1] | > 70
CCCN(CCCNc1ccnc2cc(C(F)(F)F)ccc12)CCC(C)(C)C [SJ000520476-1, CCCN(CCCNc1ccnc2cc(ccc12)C(F)(F)F)CCC(C)(C)C] | > 70
COC(=O)CCCCCNCCCNc1ccnc2cc(Cl)ccc12 [SJ000521021-1] | 31.4
c1coc(CNCCCNc2ccnc3cc(-c4cccc5ccccc45)ccc23)c1 [SJ000311274-1, C(CNCc1occc1)CNc2ccnc3cc(ccc23)c4cccc5ccccc45] | > 70
Clc1ccc2c(NCCCNCc3cc4ccccc4s3)ccnc2c1 [SJ000521032-1, Clc1ccc2c(NCCCNCc3cc4ccccc4s3)ccnc2c1] | > 70
FC(F)(F)c1ccc2c(NCCCNCc3cc(Br)cs3)ccnc2c1 [SJ000521056-1, FC(F)(F)c1ccc2c(NCCCNCc3cc(Br)cs3)ccnc2c1] | > 70
Clc1ccc2c(NCCCCN(Cc3ccccc3)CC3CCCCC3)ccnc2c1 [SJ000361194-2, Clc1ccc2c(NCCCCN(CC3CCCCC3)Cc4ccccc4)ccnc2c1] | > 70
CC(C)(C)c1ccc(Oc2ccc3c(NCCCNCc4ccco4)ccnc3c2)cc1 [SJ000311234-1, CC(C)(C)c1ccc(Oc2ccc3c(NCCCNCc4occc4)ccnc3c2)cc1] | 32.1
Cc1ccc(F)cc1CN(CCCCNc1ccnc2cc(Cl)ccc12)Cc1ccccc1 [SJ000520449-1, Cc1ccc(F)cc1CN(CCCCNc2ccnc3cc(Cl)ccc23)Cc4ccccc4] | > 70
COc1ccc(Oc2ccc3c(NCCCNCc4ccco4)ccnc3c2)cc1 [SJ000311218-1, COc1ccc(Oc2ccc3c(NCCCNCc4occc4)ccnc3c2)cc1] | > 70

Same assay, conditions: Supplementary Data 4; read-out: TR-FRET, IC50

Compound | IC50 [µM]
c1ccc(-c2ccc3c(NCCCNCc4cccc5c4OCO5)ccnc3c2)cc1 [SJ000311284-01] | 20.6

Reference: article PMC7529893, “Structural basis for substrate recognition and chemical inhibition of oncogenic MAGE ubiquitin ligases” (Nature Communications, 2020)
